Test results as given in PubChem BioAssay (NCI).
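1) Cells in 96-well plates. 2) Compound, 48 h, 5 concentrations. 3) Linear interpolation between surrounding doses. 4) Unreached endpoint = highest concentration. GI50 is the concentration that inhibits growth by half. TGI: concentration producing complete growth inhibition.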

Experiments:
Test in all cases: DTP human tumour cell line panel, 48 h
TK-10 renal = test system: TK-10 renal
NCI/ADR-RES ovarian = test system: NCI/ADR-RES ovarian
SK-MEL-28 melanoma = test system: SK-MEL-28 melanoma
SK-MEL-2 melanoma = test system: SK-MEL-2 melanoma
786-0 renal = test system: 786-0 renal
MALME-3M melanoma = test system: MALME-3M melanoma
A498 renal = test system: A498 renal
NCI-H23 lung = test system: NCI-H23 lung
OVCAR-3 ovarian = test system: OVCAR-3 ovarian
UACC-62 melanoma = test system: UACC-62 melanoma
NCI-H522 lung = test system: NCI-H522 lung

Row | SMILES | TGI (TK-10 renal) [µM] | TGI (NCI/ADR-RES ovarian) [µM] | TGI (SK-MEL-28 melanoma) [µM] | TGI (SK-MEL-2 melanoma) [µM] | TGI (786-0 renal) [µM] | TGI (MALME-3M melanoma) [µM] | TGI (A498 renal) [µM] | TGI (NCI-H23 lung) [µM] | TGI (OVCAR-3 ovarian) [µM] | TGI (UACC-62 melanoma) [µM] | TGI (NCI-H522 lung) [µM] | GI50 (NCI/ADR-RES ovarian) [µM] | GI50 (SK-MEL-2 melanoma) [µM] | GI50 (NCI-H23 lung) [µM]
1 | O=C(Nc1cccc(C(F)(F)F)c1)O/N=C(/Cl)CCl | > 100 | > 100 | > 100 | > 100 | > 100 | > 100 | > 100 | > 100 | > 100 |  |  |  |  | 
2 | N#Cc1c(SCc2ccccc2)nc(-c2ccccc2)[nH]c1=S | > 100 | 67.4 | 55 | 32.4 | 48 | > 100 | 63.8 | 47.7 | 36.3 | 56.6 |  |  |  | 
3 | COc1cccc(-c2ccc3c4c2O[C@H]2c5[nH]c6ccccc6c5C[C@@]5(O)[C@@H](C3)N(CC3CC3)CC[C@]425)c1 | 3.48 | 5.21 | > 23.1 | 3.69 | 3.09 | 2.88 | 6.83 | 5.27 | 3.3 | 3.05 |  |  |  | 
4 | NC(=O)c1nnc2cc(F)ccc2c1N | > 100 | > 100 |  | > 100 | > 100 | > 100 | > 100 | > 100 | > 100 | > 100 | > 100 |  |  | 
5 | C=CCOCn1cnc2c(N)ncnc21 | > 100 | > 100 | > 100 | > 100 | > 100 | > 100 | > 100 | > 100 |  | > 100 |  |  |  | 
6 | O=c1[nH]nc(-c2ccccc2)n1/N=C/c1ccncc1 | > 100 | > 100 | > 100 |  | > 100 | > 100 | 71.6 | > 100 | > 100 | > 100 | > 100 |  |  | 
7 | COC(=O)c1cc(NC(=O)c2cc(NC(=O)c3cc([N+](=O)[O-])cn3C)cn2C)cn1C | 94.7 | > 100 | > 100 | > 100 | > 100 | > 100 | > 100 | > 100 | > 100 | > 100 |  |  |  | 
8 | CC(=O)N1CCc2c([nH]c3ccc(Br)cc23)C1c1ccccc1 (centres undefined) | > 10 | > 10 | > 10 | > 10 | > 10 | > 10 | > 10 |  | > 10 | > 10 | > 10 |  |  | 
9 | Clc1nc(Cl)c(Cl)c(Cl)n1 | 37.3 | 59.4 | 41.3 |  | 41.4 | 35.9 | 34.6 | 40.3 | 31.7 | 35.7 | 35 |  |  | 
10 | Cc1ccc(S(=O)(=O)/N=C(\NN)Nc2ccc(Cl)cc2)cc1 | > 100 | > 100 | > 100 | > 100 | > 100 |  | > 100 | > 100 | > 100 | > 100 |  |  |  | 
11 | CC(C)CCC[C@@H](C)[C@H]1CCC2C3CC=C4C[C@@H](Oc5c6ccccc6nc6ccccc56)CCC4C3CCC21 (some centres undefined) | > 50 | > 50 | > 50 | > 50 | > 50 | > 50 |  | > 50 | > 50 | > 50 | > 50 |  |  | 
12 | COC(=O)/C=C(\C)C(=O)N(C)c1ccccc1I |  | > 100 | > 100 | > 100 | > 100 | > 100 | > 100 | > 100 | > 100 | > 100 |  |  |  | 
13 | CCOC(=O)c1cc(C(=O)c2ccccc2)n2nc(-c3ccc(Cl)cc3)ccc12 | 47.8 | 81.8 | 68.3 | 32.6 | 33 | 46.3 | 49 | > 100 |  | 39.3 | 43.7 |  |  | 
14 | CCC1C(c2cccc(OC)c2O)c2cc3c(cc2OC1N1CCCC1)OCO3 (centres undefined) | 82.1 | 54.7 | 43.4 | 43.5 | 41.2 |  |  | > 100 | 44.5 | 65.9 | 35.4 |  |  | 
15 | COc1ccc(N2C(=Nc3ccccc3)SC(=N/S(=O)(=O)c3ccccc3)/C2=N\S(=O)(=O)c2ccccc2)cc1 | 52.3 |  | 33.9 |  | 64.8 | 53.9 | 52.4 | 27.4 |  | 19.8 |  |  |  | 
16 | CCOC(=O)Nc1c(C#N)[n+]([O-])c2cc(Cl)c(Cl)cc2[n+]1[O-] | > 100 | 52.2 | 30.7 | 48 | 41.7 | 37.6 | 25 | 53.9 | 42.6 | 31.1 |  |  |  | 
17 | CN(C)c1nc(NC23CC4CC(CC(C4)C2)C3)nc(N(C)C)n1 | > 100 | > 100 | > 69.9 | 63.1 | > 89.5 | > 71.5 | > 100 | > 100 | > 76.2 | > 76.1 |  |  |  | 
18 | Cn1c(C(C#N)c2nc(Cl)ncc2Br)nc2ccccc21 (centres undefined) | > 100 | > 100 | > 100 |  | > 100 | > 100 | > 100 | > 100 | > 100 |  | > 100 |  |  | 
19 | CCOC(=O)Oc1cc2c(c(OC)c1OC)-c1ccc(SC)c(=O)cc1C(NC(=O)C(F)(F)F)CC2 (centres undefined) |  |  | > 100 | 51.4 | 13 |  | 0.554 |  |  | > 100 | 0.00253 | 0.023 | 0.00303 | < 0.001
20 | CN1C(=S)C(c2ccccc2)Sc2ccccc21 (centres undefined) | > 100 | > 100 | > 100 |  | > 100 | > 100 |  | > 100 | > 100 | > 100 | > 100 |  |  | 
21 | CC1(C)[C@@H](Cn2cnc3c(N)ncnc32)CC[C@@]1(C)CO | > 100 | > 100 | > 100 |  | > 100 | > 100 | > 100 | > 100 | > 100 | > 100 | > 100 |  |  | 
